Measured values as given in ChEMBL document CHEMBL1201862, “PubChem BioAssay data set” (2004).
Calls of active or inactive are those of the source.

Assays:
[1] = biological target: T1, Heat shock factor protein 1 (Mus musculus, UniProt P38532); test: inhibition of MG132-induced HSE-luciferase signal, confirmation, cell-based, NIH3T3, luminescence, dose retest (AID 2382); format: functional;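 further: NIH3T3 fibroblasts with HSF1-driven luciferase reporter stressed by proteasome inhibitor MG132; luminescence from HSF1-driven luciferase expression after 8 hours of MG132 stress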
T1 sequence (P38532 whole entry): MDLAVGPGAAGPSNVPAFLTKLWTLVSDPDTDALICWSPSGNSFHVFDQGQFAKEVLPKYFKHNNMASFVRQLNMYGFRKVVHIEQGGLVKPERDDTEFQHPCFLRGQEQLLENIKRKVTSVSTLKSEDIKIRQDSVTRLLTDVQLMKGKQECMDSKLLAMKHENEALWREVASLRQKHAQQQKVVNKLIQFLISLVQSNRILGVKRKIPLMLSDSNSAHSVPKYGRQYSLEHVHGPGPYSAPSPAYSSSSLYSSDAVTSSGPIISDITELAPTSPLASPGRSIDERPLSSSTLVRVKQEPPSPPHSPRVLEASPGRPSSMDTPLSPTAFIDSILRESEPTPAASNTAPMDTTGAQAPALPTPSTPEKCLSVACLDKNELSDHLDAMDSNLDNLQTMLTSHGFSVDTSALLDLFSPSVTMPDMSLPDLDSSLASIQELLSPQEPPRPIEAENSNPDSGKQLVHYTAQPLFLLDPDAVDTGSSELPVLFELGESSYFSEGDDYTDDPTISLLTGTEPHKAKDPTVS

Beta-galactosidase = Beta-galactosidase (Escherichia coli, UniProt Q8VNN2); test: beta-galactosidase enzyme inhibitors and activators, dose response, artefact control for CCR6 antagonist project, biochemical, E. coli enzyme, set 3 (AID 504712); format: functional
Chain of Beta-galactosidase (Q8VNN2 whole entry): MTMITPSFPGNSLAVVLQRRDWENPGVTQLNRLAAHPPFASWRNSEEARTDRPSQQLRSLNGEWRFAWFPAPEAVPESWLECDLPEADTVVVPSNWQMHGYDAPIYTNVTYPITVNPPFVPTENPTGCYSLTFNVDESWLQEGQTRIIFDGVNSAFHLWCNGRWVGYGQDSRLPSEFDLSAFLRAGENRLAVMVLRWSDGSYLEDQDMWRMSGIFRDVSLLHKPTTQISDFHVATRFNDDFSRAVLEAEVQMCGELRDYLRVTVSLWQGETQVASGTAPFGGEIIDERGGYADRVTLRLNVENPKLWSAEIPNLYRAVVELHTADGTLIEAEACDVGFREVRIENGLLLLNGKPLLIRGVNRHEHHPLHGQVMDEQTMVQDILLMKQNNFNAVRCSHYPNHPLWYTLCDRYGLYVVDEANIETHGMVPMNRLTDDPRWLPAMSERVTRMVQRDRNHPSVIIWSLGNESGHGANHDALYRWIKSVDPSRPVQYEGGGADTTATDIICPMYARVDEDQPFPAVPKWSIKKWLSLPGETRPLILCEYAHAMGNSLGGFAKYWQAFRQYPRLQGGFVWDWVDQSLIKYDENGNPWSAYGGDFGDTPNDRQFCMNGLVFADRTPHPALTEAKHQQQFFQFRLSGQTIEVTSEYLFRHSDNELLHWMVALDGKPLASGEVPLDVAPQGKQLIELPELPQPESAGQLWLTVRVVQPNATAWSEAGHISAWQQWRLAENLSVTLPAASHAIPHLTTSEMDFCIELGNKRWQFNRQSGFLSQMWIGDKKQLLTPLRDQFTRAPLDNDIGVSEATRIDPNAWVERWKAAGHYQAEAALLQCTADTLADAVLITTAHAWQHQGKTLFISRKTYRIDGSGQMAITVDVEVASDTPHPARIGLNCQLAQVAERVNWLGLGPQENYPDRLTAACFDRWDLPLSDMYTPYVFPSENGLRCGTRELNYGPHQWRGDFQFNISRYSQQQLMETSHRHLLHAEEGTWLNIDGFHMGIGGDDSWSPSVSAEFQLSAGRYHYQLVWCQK

Protein RecA = biological target: T2, Protein RecA (Mycobacterium tuberculosis, UniProt P9WHJ3); test: Fluorescence Cell-Free Homogeneous Dose Retest to Identify Inhibitors of RecA-Intein Splicing Activity. [Related pubchem assays (depositor defined):AID2097, AID2223, AID489010, AID492950]; format: functional
T2 sequence (P9WHJ3 whole entry): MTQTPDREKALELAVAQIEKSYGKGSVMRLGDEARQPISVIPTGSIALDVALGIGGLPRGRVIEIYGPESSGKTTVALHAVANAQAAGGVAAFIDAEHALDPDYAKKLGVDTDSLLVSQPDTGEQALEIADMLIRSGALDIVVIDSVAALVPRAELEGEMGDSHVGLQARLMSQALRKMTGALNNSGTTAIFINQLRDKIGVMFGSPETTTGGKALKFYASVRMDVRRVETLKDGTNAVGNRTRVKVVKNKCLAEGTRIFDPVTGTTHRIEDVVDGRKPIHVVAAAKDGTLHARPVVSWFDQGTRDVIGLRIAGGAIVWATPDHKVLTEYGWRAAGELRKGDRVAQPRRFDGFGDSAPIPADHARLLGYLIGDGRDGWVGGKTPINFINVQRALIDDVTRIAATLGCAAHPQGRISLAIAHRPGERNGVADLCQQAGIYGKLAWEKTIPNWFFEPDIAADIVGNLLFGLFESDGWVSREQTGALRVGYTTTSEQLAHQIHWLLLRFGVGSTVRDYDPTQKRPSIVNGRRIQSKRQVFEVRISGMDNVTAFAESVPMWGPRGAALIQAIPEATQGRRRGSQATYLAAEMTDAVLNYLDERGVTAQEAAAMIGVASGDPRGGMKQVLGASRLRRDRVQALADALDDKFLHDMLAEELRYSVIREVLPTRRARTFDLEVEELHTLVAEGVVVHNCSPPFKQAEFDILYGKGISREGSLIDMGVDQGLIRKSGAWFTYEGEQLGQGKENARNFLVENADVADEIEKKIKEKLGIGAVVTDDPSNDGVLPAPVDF

[2] = biological target: T3, Replicative DNA helicase DnaB (Mycobacterium tuberculosis, UniProt P9WMR3); test: DnaB intein splicing inhibitors, dose response, biochemical, cell-free fluorescence (AID 449749); format: functional
T3 sequence (P9WMR3 whole entry): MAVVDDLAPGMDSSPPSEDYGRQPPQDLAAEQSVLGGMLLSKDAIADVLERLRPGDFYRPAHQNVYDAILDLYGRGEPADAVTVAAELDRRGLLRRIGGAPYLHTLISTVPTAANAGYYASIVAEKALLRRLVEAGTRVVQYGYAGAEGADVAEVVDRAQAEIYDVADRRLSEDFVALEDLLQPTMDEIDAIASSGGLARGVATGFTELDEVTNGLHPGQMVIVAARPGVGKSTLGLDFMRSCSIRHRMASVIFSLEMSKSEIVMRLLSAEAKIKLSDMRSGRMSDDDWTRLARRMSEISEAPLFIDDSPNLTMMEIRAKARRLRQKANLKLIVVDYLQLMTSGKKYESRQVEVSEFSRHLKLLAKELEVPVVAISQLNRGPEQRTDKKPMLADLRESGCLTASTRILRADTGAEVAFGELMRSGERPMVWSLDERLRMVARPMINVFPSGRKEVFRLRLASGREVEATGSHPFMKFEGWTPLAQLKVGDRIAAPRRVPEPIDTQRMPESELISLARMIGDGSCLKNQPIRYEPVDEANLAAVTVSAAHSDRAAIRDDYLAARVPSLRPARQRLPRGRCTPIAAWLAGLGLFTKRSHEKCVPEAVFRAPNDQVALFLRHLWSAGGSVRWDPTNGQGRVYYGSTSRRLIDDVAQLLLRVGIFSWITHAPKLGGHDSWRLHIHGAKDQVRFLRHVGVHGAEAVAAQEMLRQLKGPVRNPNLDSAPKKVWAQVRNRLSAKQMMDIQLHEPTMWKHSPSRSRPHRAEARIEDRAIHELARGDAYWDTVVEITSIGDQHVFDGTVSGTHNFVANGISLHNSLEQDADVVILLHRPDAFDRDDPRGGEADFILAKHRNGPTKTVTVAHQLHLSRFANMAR

Genome polyprotein = Genome polyprotein (dengue virus type 2, UniProt P29990); test: Dengue-2 NS5 methyltransferase inhibitors, primary screen, biochemical, confirmation dose response (AID 588689); format: functional
Chain of Genome polyprotein (P29990 2492-3391 limits assumed): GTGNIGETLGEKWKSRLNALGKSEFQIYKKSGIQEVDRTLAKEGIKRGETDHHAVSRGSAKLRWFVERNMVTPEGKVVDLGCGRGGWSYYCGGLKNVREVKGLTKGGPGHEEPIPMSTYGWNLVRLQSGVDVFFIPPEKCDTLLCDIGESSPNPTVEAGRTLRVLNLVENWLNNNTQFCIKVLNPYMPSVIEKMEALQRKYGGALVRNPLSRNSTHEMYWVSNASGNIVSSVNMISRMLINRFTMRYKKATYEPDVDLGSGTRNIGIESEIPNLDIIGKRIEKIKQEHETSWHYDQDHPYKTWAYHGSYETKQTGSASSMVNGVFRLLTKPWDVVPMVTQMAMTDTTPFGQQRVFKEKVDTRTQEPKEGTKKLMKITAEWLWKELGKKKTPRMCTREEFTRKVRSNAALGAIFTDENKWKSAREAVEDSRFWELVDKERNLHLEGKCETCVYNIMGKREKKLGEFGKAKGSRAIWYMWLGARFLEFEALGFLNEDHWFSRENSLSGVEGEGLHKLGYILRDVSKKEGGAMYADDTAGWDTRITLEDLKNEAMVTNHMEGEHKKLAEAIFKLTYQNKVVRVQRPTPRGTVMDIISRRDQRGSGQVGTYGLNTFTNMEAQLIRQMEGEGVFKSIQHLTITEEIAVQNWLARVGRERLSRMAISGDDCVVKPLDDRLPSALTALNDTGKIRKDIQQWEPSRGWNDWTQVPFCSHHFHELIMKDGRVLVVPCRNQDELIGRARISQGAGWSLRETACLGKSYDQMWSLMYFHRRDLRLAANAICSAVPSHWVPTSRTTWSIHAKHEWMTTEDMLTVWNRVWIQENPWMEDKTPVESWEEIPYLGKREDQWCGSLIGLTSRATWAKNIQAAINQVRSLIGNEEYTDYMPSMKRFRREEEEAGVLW

[3] = biological target: Induced myeloid leukemia cell differentiation protein Mcl-1 (Homo sapiens, UniProt Q07820); format: functional
Chain of Induced myeloid leukemia cell differentiation protein Mcl-1 (Q07820 whole entry): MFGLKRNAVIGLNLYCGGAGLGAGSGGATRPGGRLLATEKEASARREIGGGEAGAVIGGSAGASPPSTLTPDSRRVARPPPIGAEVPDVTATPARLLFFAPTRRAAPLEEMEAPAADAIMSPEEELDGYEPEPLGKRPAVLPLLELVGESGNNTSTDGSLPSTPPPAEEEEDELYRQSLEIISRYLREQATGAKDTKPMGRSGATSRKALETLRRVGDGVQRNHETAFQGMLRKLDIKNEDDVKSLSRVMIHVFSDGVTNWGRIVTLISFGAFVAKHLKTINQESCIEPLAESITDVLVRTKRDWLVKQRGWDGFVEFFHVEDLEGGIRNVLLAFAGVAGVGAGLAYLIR

[4] = biological target: C-C chemokine receptor type 6 (Homo sapiens, UniProt P51684); test: CCR6 receptor antagonists, dose response, cell-based, luminescent beta-arrestin readout (AID 504728); format: functional
Chain of C-C chemokine receptor type 6 (P51684 whole entry): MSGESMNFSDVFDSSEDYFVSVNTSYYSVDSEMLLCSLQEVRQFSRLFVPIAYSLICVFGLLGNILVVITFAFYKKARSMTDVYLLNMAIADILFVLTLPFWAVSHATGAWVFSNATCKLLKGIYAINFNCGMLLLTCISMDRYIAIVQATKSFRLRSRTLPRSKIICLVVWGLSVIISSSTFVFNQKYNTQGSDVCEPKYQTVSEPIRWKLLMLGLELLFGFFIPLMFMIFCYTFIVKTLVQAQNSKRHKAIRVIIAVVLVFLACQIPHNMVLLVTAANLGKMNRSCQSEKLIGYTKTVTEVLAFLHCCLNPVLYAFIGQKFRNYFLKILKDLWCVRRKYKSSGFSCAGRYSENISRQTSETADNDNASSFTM

[5] = biological target: Multidrug resistance protein CDR2 (Candida albicans (strain SC5314 / ATCC MYA-2876) (Yeast), UniProt P78595); test: CaCDR2 efflux pump inhibitors in yeast, dose response, S. cerevisiae AD1-8u, singleplex, Cherry Pick1 hits (AID 588604); format: functional
Chain of Multidrug resistance protein CDR2 (P78595 whole entry): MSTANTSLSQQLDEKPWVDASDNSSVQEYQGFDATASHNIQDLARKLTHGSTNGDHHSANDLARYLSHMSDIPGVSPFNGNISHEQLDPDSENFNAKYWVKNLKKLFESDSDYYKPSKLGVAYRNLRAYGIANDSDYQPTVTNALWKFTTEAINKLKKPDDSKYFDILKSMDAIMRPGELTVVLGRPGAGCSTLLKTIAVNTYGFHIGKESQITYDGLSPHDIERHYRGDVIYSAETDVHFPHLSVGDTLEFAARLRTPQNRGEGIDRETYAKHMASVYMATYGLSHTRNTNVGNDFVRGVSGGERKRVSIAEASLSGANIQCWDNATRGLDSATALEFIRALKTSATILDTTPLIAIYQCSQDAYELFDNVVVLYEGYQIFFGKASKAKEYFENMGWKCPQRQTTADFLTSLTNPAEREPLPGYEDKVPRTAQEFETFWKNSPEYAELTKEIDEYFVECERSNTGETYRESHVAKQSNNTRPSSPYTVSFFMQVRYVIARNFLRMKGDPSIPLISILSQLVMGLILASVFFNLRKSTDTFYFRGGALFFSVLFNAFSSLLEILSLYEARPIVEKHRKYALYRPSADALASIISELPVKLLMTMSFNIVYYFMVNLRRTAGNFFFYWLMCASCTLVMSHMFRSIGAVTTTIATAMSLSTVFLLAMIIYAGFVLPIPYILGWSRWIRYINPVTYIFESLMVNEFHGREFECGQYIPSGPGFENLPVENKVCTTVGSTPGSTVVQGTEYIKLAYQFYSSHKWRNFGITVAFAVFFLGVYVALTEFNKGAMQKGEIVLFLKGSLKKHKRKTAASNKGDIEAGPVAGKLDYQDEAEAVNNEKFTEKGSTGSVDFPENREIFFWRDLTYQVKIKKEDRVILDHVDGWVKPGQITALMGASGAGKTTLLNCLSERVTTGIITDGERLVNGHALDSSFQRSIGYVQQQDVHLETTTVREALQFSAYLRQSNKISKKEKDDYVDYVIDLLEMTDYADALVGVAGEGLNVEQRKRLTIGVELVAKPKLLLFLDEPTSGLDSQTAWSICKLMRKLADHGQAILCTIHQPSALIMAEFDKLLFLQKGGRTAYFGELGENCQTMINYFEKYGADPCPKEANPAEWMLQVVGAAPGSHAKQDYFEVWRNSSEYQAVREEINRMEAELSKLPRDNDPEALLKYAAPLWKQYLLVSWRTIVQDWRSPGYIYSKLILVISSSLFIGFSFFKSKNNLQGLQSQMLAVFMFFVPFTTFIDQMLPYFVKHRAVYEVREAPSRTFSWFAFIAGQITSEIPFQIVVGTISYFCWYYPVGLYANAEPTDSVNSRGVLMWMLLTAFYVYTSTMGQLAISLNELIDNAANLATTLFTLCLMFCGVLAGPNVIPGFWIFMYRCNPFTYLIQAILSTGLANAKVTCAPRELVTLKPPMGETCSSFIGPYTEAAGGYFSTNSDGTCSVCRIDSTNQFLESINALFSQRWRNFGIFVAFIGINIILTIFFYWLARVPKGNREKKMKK

Streptokinase A = biological target: T4, Streptokinase A (Streptococcus pyogenes serotype M1, UniProt P10520); test: S. pyogenes streptokinase expression inhibitors, potency, dose response, plasminogen activation absorbance, OD405 (AID 1914); format: functional, Streptococcus pyogenes M1 GAS;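 further: secreted streptokinase activity via plasminogen activation per viability signal from cell pellet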
T4 sequence (P10520 whole entry): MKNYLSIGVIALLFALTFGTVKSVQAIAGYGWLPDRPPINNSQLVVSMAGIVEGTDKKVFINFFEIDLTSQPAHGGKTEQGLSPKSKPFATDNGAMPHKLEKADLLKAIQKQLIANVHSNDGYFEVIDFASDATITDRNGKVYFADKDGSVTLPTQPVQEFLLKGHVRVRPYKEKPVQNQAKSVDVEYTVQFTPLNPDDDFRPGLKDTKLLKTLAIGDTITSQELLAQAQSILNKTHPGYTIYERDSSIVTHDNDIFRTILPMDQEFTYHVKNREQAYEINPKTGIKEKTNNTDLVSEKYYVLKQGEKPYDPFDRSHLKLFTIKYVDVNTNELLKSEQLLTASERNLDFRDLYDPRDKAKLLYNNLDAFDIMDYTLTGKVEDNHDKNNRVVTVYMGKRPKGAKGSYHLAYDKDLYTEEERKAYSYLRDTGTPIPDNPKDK

[6] = biological target: T5, Mitochondrial peptide methionine sulfoxide reductase (Bos taurus, UniProt P54149); test: Absorbance-based biochemical high throughput dose response assay for activators of Methionine sulfoxide reductase A (MsrA).; format: functional
T5 sequence (P54149 whole entry): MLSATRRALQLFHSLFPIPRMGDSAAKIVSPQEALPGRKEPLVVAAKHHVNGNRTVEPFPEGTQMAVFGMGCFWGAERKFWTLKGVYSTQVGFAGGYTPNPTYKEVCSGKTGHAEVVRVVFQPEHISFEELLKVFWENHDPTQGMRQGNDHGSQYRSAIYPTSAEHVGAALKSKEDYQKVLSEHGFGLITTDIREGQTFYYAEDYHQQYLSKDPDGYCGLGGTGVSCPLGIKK

O=C1C(Cl)=C(Nc2ccc3cn[nH]c3c2)C(=O)c2ccccc21
inactive: IC50 (Beta-galactosidase) > 66.6 µM | IC50 [4] > 66.6 µM | EC50 [6] > 104 µM
active: EC50 [1] 5.42 µM | EC50 (Protein RecA) 0.955 µM | AC50 [2] 1.65 µM | IC50 (Genome polyprotein) 18.7 µM | IC50 [3] 6.25 µM | EC50 [5] 40.6 µM | EC50 (Streptokinase A) 6.22 µM
